Data reported in patent US11209437B2, “Fluorescent probe and preparation method and use thereof” (Fluorescence Diagnosis (shanghai) Biotech Company Ltd., priority 2016, dated 2021).

Tests used:
[1] = Viscosity responsiveness: fluorescence emission spectra of probes in glycerol and methanol; format: physicochemical; settings: for Emission wavelength: excited at maximum excitation wavelength of each probe; for Fluorescence ratio in glycerol to methanol: probe 1×10^−5 M
Method: Probes 1 to 98, 101, 103, 105, 107, 109, 111, 114, 117, and 120, and the reference probes 99, 100, 102, 104, 106, 108, 110, 112, 113, 115, 116, 118, 119, 121, BG-CCVJ and BG-Gly-CCVJ were dissolved in dimethyl sulfoxide, respectively, to prepare mother liquors having a concentration of 1×10^−2 M, to each of which glycerol and methanol were added and uniformly mixed, to prepare solutions finally having a concentration of 1×10^−5 M. Depending on the probes, fluorescence emission spectra of the probes were detected successively with the maximum excitation wavelength of each probe under the same conditions, and the results were shown in Table 1.
That is, these probes are sensitive to viscosity changes and have viscosity responsiveness.

SNAP protein tags = target: T1, SNAP protein tags (Homo sapiens, UniProt P16455, A127T/A154D/C150Q/C62A/E30R/G131K/G132T/G153L/K125A/K32I/L33F/M134L/N157G/Q115S/Q116H/R128A/R135S/S151G/S152D/S159E); assay: Fluorescence activation of probe after incubation with corresponding protein tag (SNAP); format: biochemical; settings: probe 5 μM, protein tag 10 μM, 37° C., 1 hr
T1 sequence (P16455 1-182 E30R/K32I/L33F/C62A/Q115S/Q116H/K125A/A127T/R128A/G131K/G132T/M134L/R135S/C150Q/S151G/S152D/G153L/A154D/N157G/S159E): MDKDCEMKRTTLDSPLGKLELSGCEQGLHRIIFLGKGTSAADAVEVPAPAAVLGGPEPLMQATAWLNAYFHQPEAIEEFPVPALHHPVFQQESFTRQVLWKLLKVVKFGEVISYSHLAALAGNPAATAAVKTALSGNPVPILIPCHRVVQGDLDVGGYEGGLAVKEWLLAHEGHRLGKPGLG
Method: (§1) Probes were mixed with corresponding protein tags to obtain mixed samples, in which the final probe concentration was 5 μM, and the final protein tag concentration was 10 μM. The mixed samples were incubated 37° C. for 1 hr, fluorescence spectrophotometer was used to detect the change in fluorescence intensity, and the results are shown in Table 1.
(§2) From the quantum yield of probe bound to protein tag, after reacting with the protein tags, the probes of the Examples could be detected to have significant signal enhancement in corresponding excitation transmission channels, the fluorescence activation multiple reached several hundreds to a thousand or more, and the brightness was high, which illustrates that after the probes of the Examples are bound to the protein tags, fluorescence of the probes can be activated, and the probes have good fluorescent molecular switching properties. In contrast, though the fluorescence of the reference probes could also be activated, the quantum yield of activated fluorescence was very low, and the brightness was very poor. In particular, in view of comparison results between probe 98 and reference probe 99, probe 101 and reference probe 102, probe 103 and reference probe 104, probe 105 and reference probe 106, probe 107 and reference probe 108, probe 109 and reference probe 110, probe 111 and reference probe 112, probe 114 and reference probe 115, probe 117 and reference probe 118, probe 120 and reference probe 121 in Table 1, for the same fluorescent dye, when the ligand is connected to the electron donor part of the fluorescent dye, the fluorescence activation brightness of the probe is much higher than the reference probe in which ligand is connected to the electron acceptor part of the fluorescent dye.

[2] = Fluorescence of free probe prior to binding to a protein tag; format: physicochemical
Method: as §1, §2

Row | SMILES | Emission wavelength [1] [nm] | Fluorescence ratio in glycerol to methanol [1] | Fluorescence activation multiple (SNAP protein tags) | Quantum yield of probe bound to protein tag (SNAP protein tags) | Quantum yield of free probe [2]
1 | CN(CCO)c1ccc2nc(/C=C(\C#N)C(=O)NCc3ccc(COc4nc(N)nc5[nH]cnc45)cc3)sc2c1 [Reference Probe 115, reference compound] | 625 | 113 | 38 | 0.01 | <0.001
2 | CN(C)c1ccc(-c2ccc(/C=C(\C#N)C(=O)NCc3ccc(COc4nc(N)nc5[nH]cnc45)cc3)s2)cc1 [Reference Probe 116, reference compound] | 620 | 125 | 29 | 0.01 | <0.001
3 | CN(CCO)c1ccc(-c2ccc(/C=C(\C#N)C(=O)NCc3ccc(COc4nc(N)nc5[nH]cnc45)cc3)s2)cc1 [Reference Probe 118, reference compound] | 621 | 158 | 29 | 0.02 | <0.001
4 | CN(C)c1ccc(-c2ccc(/C=C(\C#N)C(=O)NCc3ccc(COc4nc(N)nc5[nH]cnc45)cc3)s2)s1 [Reference Probe 119, reference compound] | 655 | 362 | 15 | 0.01 | <0.001
5 | CN(CCO)c1ccc(-c2ccc(/C=C(\C#N)C(=O)NCc3ccc(COc4nc(N)nc5[nH]cnc45)cc3)s2)s1 [Reference Probe 121, reference compound] | 655 | 219 | 39 | 0.01 | <0.001
6 | N#C/C(=C\c1cc2c3c(c1)CCCN3CCC2)C(=O)NCc1ccc(COc2nc(N)nc3[nH]cnc23)cc1 [Reference Probe BG-CCVJ, reference compound] | 501 | 260 | 170 | 0.02 | <0.001
7 | N#C/C(=C\c1cc2c3c(c1)CCCN3CCC2)C(=O)NCC(=O)NCc1ccc(COc2nc(N)nc3[nH]cnc23)cc1 [Reference Probe BG-Gly-CCVJ, reference compound] | – | 260 | 60 | – | <0.001
8 | CN(CCOC(=O)NCc1ccc(COc2nc(N)nc3[nH]cnc23)cc1)c1ccc(/C=C(\C#N)c2nc3ccccc3o2)cc1 [probe 2] | 510 | 410 | 146 | 0.15 | 0.001
9 | CN(CCOC(=O)NCc1ccc(COc2nc(N)nc3[nH]cnc23)cc1)c1ccc(/C=C(\C#N)c2nc3ccccc3s2)cc1 [probe 3] | 532 | 399 | 139 | 0.27 | 0.0019
10 | CN(CCOC(=O)NCc1ccc(COc2cc(Cl)nc(N)n2)cc1)c1ccc(/C=C(\C#N)C(=O)OC(C)(C)C)cc1 [probe 4] | 480 | 562 | 490 | 0.35 | <0.001
11 | CN(CCOC(=O)NCc1ccc(COc2cc(Cl)nc(N)n2)cc1)c1ccc(/C=C(\C#N)c2nc3ccccc3o2)cc1 [probe 5] | 555 | 790 | 1174 | 0.15 | <0.001
12 | CN(CCOC(=O)NCc1ccc(COc2cc(Cl)nc(N)n2)cc1)c1ccc(/C=C(\C#N)c2nc3ccccc3s2)cc1 [probe 6] | 610 | 1183 | 989 | 0.37 | <0.001
13 | CC(C)(C)OC(=O)/C(C#N)=C/c1ccc(N(CCO)CCOC(=O)NCc2ccc(COc3nc(N)nc4[nH]cnc34)cc2)cc1 [probe 10] | 482 | 655 | 431 | 0.39 | <0.001
14 | CC(C)(C)OC(=O)/C(C#N)=C/c1ccc(N(CCOC(=O)NCCCS(=O)(=O)O)CCOC(=O)NCc2ccc(COc3nc(N)nc4[nH]cnc34)cc2)cc1 [probe 11] | 481 | 422 | 270 | 0.36 | 0.0013
15 | COCCOCCOCCOCCOCCN(CCOC(=O)NCc1ccc(COc2nc(N)nc3[nH]cnc23)cc1)c1ccc(/C=C(\C#N)C(=O)OC(C)(C)C)cc1 [probe 12] | 482 | 405 | 351 | 0.41 | 0.0012
16 | CN(CCC(=O)NCc1ccc(COc2nc(N)nc3[nH]cnc23)cc1)c1ccc(/C=C(\C#N)C(=O)OC(C)(C)C)cc1 [probe 13] | 483 | 391 | 315 | 0.29 | <0.001
17 | CN1C(=O)/C(=C/c2ccc(N(C)CCOC(=O)NCc3ccc(COc4nc(N)nc5[nH]cnc45)cc3)cc2)N=C1c1ccccc1 [probe 14] | 531 | 560 | 771 | 0.18 | <0.001
18 | CN1C(=O)/C(=C/c2ccc(N(C)CCOC(=O)NCc3ccc(COc4cc(Cl)nc(N)n4)cc3)cc2)N=C1/C=C/c1ccccc1 [probe 16] | 580 | 311 | 359 | 0.21 | <0.001
19 | CN(CCOC(=O)NCc1ccc(COc2nc(N)nc3[nH]cnc23)cc1)c1ccc(C2=C(C#N)C(=C(C#N)C#N)OC2(C)C)cc1 [probe 18] | 535 | 301 | 265 | 0.45 | 0.0017
